US8177962B2, “Metal corrosion inhibitor and hydrogen chloride formation inhibitor in a crude oil atmospheric distillation unit” (Kurita Water Industries, Ltd., priority 2002, dated 2012)

Tests used:
[1] = thermal decomposition at 760° C., GC/MS, FIG. 3
Description: Choline chloride was subjected to thermal decomposition GC/MS analysis. 5989A manufactured by Hewlett Packard was used as the GC/MS analyzer, and DB624 manufactured by J&W (0.32 mm×30 m, membrane thickness of 1.8 μm) was used as the column. The temperature for thermal decomposition of choline chloride was 760° C.

[2] = Base dissociation constant (Kb) calculated from pH meter measurement; assay type: physicochemical; conditions: for Kb value (25° C.): Table 1; for Kb (25° C.) / Kb (170° C.): Table 6

Molecule	thermal decomposition products [1]	Kb value (25° C.) [2]	Kb (25° C.) [2]	Kb (170° C.) [2]
C[N+](C)(C)CCO.[Cl-] [Choline hydrochloride (choline chloride), choline chloride]	produces methyl chloride, trimethylamine and N,N-dimethylaminoethanol by thermal decomposition, but does not produce hydrogen chloride			
C[N+](C)(C)CCO.[OH-] [Choline, (β-hydroxyethyl)trimethylammonium hydroxide]		3.14 × 10^−3	3.14 × 10^−3	8.40 × 10^−3
NC1CCCCC1 [Cyclohexylamine]		3.39 × 10^−4		
NCCO [Monoethanolamine]		3.15 × 10^−5	2.60 × 10^−5	8.42 × 10^−6
C1COCCN1 [Morpholine]		2.09 × 10^−6		
Dimethylethanolamine			2.21 × 10^−5	3.38 × 10^−5
